Experimental data reported in US10195156B2, “Compounds and compositions for intracellular delivery of agents” (ModernaTX, Inc., priority 2015, dated 2019).

Tests used:
[1] = Particle size and polydispersity index of nanoparticle compositions (Zetasizer Nano ZS); assay type: physicochemical
How it was run: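 In 1×PBS, the compositions were sized on a Zetasizer Nano ZS, which also reported their polydispersity index.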

[2] = Encapsulation efficiency of RNA (QUANT-IT RIBOGREEN RNA assay); assay type: physicochemical
How it was run: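 Nanoparticle samples diluted to ~5 μg/mL RNA in TE buffer (pH 7.5), incubated with or without 2% Triton X-100 solution at 37 °C for 15 min, then RiboGreen added. Fluorescence read at ~480/520 nm, blank-subtracted; free RNA % = intact over Triton-disrupted signal.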

[3] = pKa of nanoparticle compositions; assay type: physicochemical
[4] = tested on: luciferase (Luc) mRNA expression; test: Expression of Luc induced by sample formulations, whole-body bioluminescence after intravenous administration; assay type: in vivo; settings: mice, i.v., 0.5 mg/kg
How it was run: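 Mice (n=6) dosed intravenously with Luc mRNA nanoparticle formulations at 0.5 mg/kg. Whole-body bioluminescence measured at 3, 6 and 24 h. Standard MC3 formulation and PBS control run alongside.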

[5] = tested on: modified luciferase expression; test: Expression of Luc in different organs (liver, lung, spleen, femur) 6 hours after intravenous administration; assay type: in vivo; settings: i.v., 0.5 mpk
Experimental: The efficacy of the nanoparticle compositions presented in Tables 1, 1a, 17-1, 19-1, 20-1 and 21-1 was further evaluated by measuring the expression of modified luciferase in the liver, lung, spleen, and femur upon administration of a given composition. Formulations were administered intravenously to mice (n=3) at a dosage of 0.5 mpk and bioluminescence measured after 6 hours. The standard MC3 formulation and a PBS control were also tested.

[6] = tested on: IL-6; test: Cytokine production induced by sample formulations: IL-6; assay type: in vivo; settings: mice, i.v., 0.5 mpk, 6 hours; for IL-6: in pg/mL (unit assumed)
How it was run: (§1)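 Mice received nanoparticle formulations intravenously at 0.5 mpk, with standard MC3 formulation and PBS as controls. Cytokine concentrations were measured 6 hours after dosing.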

[7] = tested on: IP-10; test: Cytokine production induced by sample formulations: IP-10; assay type: in vivo; settings: mice, i.v., 0.5 mpk, 6 hours; for IP-10: in pg/mL (unit assumed)
How it was run: as §1

[8] = Table 20-1, rows without footnote mark
[9] = Table 1, rows without footnote mark
[10] = Table 1, rows without footnote mark (lipid:DOPE:cholesterol:PEG-DMG 40:20:38.5:1.5, Luc mRNA; MC3 standard formulation)
[11] = Table 1, * formulated with lipid:DSPC:Chol:PEG-DMG 50:10:38.5:1.5
[12] = Table 1, * lipid:DSPC:Chol:PEG-DMG 50:10:38.5:1.5
[13] = comparison amongst compositions

IL-6 ([6]; Table 4) | IP-10 ([7]; Table 4) | PDI ([1]; Table 17-1) | Size (nm) ([1]; Table 17-1) | EE (%) ([2]; Table 17-1) | pKa ([3]; Table 17-1) | IL-6 ([6]; Table 17-4) | IP-10 ([7]; Table 17-4) | SMILES | Total Flux 3 hours ([4]; Table 2) | Total Flux 6 hours ([4]; Table 2) | Total Flux 24 hours ([4]; Table 2) | Total Flux Liver ([5]; Table 3, mice) | Total Flux Lung ([5]; Table 3, mice) | Total Flux Spleen ([5]; Table 3, mice, spleen) | Total Flux 3 hours ([4]; Table 17-2) | Total Flux 6 hours ([4]; Table 17-2) | Total Flux 24 hours ([4]; Table 17-2) | Total Flux Liver ([5]; Table 17-3, mice) | Total Flux Lung ([5]; Table 17-3, mice) | Total Flux Spleen ([5]; Table 17-3, mice, spleen) | further results
– | – | 0.176 | 90.4 nm | 89.22% | 6.89 | 84.3 | 222 | CCCCCCCCCCCCN(CCCCO)CCCCCCCCCCCC [Compound 17-13, 4-(Didodecylamino)butan-1-ol] | – | – | – | – | – | – | 1.10E+06 | 1.80E+06 | 7.95E+05 | 3.56E+05 | 4.66E+04 | 1.90E+05 | –
– | – | 0.154 | 95.6 nm | 94.5% | 6.34 | 80.7 | 560 | CCCCC/C=C\C/C=C\CCCCCCCCN(CCO)CCCCCCCCCCCC [Compound 17-4, 2-(Dodecyl((9Z,12Z)-octadeca-9,12-dien-1-yl)amino)ethan-1-ol] | – | – | – | – | – | – | 1.22E+09 | 3.60E+08 | 6.05E+07 | 8.00E+07 | 1.95E+05 | 2.30E+06 | total flux / Luc expression, rank within the named table (in words) ([4]; each time point): substantially higher flux than compositions including Compounds 17-2, 17-3, and 17-7; total flux in the spleen, rank within the named table (in words) ([5]; mice, spleen): highest; IL-6 induction, rank within the named table (in words) [6]: highest IL-6 and IP-10 levels; IP-10 induction, rank or comparison with IL-6 (in words) [7]: highest IL-6 and IP-10 levels
– | – | 0.138 | 87.1 nm | 95.0% | 4.93 | 35.2 | 112 | CCCCC/C=C\C/C=C\CCCCCCCCN(CCCCCCCC/C=C\C/C=C\CCCCC)CCOC [Compound 17-9, (9Z,12Z)—N-(2-Methoxyethyl)-N-((9Z,12Z)-octadeca-9,12-dien-1-yl)octadeca-9,12-dien-1-amine] | – | – | – | – | – | – | 6.87E+06 | 9.97E+06 | 3.43E+05 | 1.39E+06 | 1.40E+04 | 3.72E+05 | Total Flux Femur ([5]; Table 17-3, mice): 2.29E+04
– | – | 0.110 | 68.5 nm | 95.6% | 5.68 | 49.9 | 100 | CCCCCCCCCCCCCCN(CCO)CCCCCCCCCCCCCC [Compound 17-7, 2-(Ditetradecylamino)ethan-1-ol] | – | – | – | – | – | – | 4.68E+05 | 6.82E+05 | 5.46E+05 | 7.44E+04 | 1.35E+04 | 3.46E+04 | particle size, rank within the named table (in words) [1, 13]: smallest particles

Continued, compound first:

SMILES | IL-6 ([6]; Table 4) | IP-10 ([7]; Table 4) | PDI ([1]; Table 17-1) | Size (nm) ([1]; Table 17-1) | EE (%) ([2]; Table 17-1) | pKa ([3]; Table 17-1) | IL-6 ([6]; Table 17-4) | IP-10 ([7]; Table 17-4) | Total Flux 3 hours ([4]; Table 2) | Total Flux 6 hours ([4]; Table 2) | Total Flux 24 hours ([4]; Table 2) | Total Flux Liver ([5]; Table 3, mice) | Total Flux Lung ([5]; Table 3, mice) | Total Flux Spleen ([5]; Table 3, mice, spleen) | Total Flux 3 hours ([4]; Table 17-2) | Total Flux 6 hours ([4]; Table 17-2) | Total Flux 24 hours ([4]; Table 17-2) | Total Flux Liver ([5]; Table 17-3, mice) | Total Flux Lung ([5]; Table 17-3, mice) | Total Flux Spleen ([5]; Table 17-3, mice, spleen) | further results
CCCCCCCCCCCCN(CCO)CCN(CCCCCCCC(=O)OCCCCCCCCC)CCCCCCCC(=O)OCCCCCCCCC [Compound 20-10, Dinonyl 8,8′-((2-(dodecyl(2-hydroxyethyl)amino)ethyl)azanediyl)dioctanoate] | – | – | – | – | – | – | – | – | – | – | – | – | – | – | – | – | – | – | – | – | PDI [1, 8]: 0.130; Size (nm) [1, 8]: 85.7 nm; EE (%) [2, 8]: 91.4%; pKa [3, 8]: 6.42; Total Flux 3 hours ([4]; Table 20-2): 5.05E+09; Total Flux 6 hours ([4]; Table 20-2): 2.16E+09; Total Flux 24 hours ([4]; Table 20-2): 2.54E+08; Total Flux Femur ([5]; Table 20-3, mice): 3.09E+06; Total Flux Liver ([5]; Table 20-3, mice): 4.40E+08; Total Flux Lung ([5]; Table 20-3, mice): 5.01E+06; Total Flux Spleen ([5]; Table 20-3, mice, spleen): 9.67E+07; IL-6 ([6]; Table 20-4, formula (20-I)): 739.0; IL-6 induction, rank within the named table (in words) [6]: highest; IP-10 ([7]; Table 20-4, formula (20-I)): 2356.8
CCCCC/C=C\C/C=C\CCCCCCCCN(CCCCCCCC/C=C\C/C=C\CCCCC)CCN1CCN(CCN(CCCCCCCCCCCC)CCN(CCCCCCCCCCCC)CCCCCCCCCCCC)CC1 [Compound 29, N^1-(2-(4-(2-(Di((9Z,12Z)-octadeca-9,12-dien-1-yl)amino)ethyl)piperazin-1-yl)ethyl)-N^1,N^2,N^2-tridodecylethane-1,2-diamine] | 108 | 3454 | – | – | – | – | – | – | 1.22E+08 | 2.51E+08 | 2.69E+07 | 2.27E+07 | 4.70E+05 | 2.97E+06 | – | – | – | – | – | – | PDI [1, 9]: 0.060; Size (nm) [1, 10]: 105.3 nm; EE (%) [2, 9]: 48.8%; pKa [3, 9]: 5.97
CCCCCCCC/C=C\CCCCCCCCN(CCCCCCCC/C=C\CCCCCCCC)CCN(CCCCCCCC/C=C\CCCCCCCC)CCN1CCNCC1 [Compound 40, N^1,N^1,N^2-Tri((Z)-octadec-9-en-1-yl)-N^2-(2-(piperazin-1-yl)ethyl)ethane-1,2-diamine] | 134 | 919 | – | – | – | – | – | – | 1.24E+08 | 1.07E+07 | 5.62E+06 | 1.33E+06 | 1.42E+05 | 5.68E+05 | – | – | – | – | – | – | Size (nm) [1, 11]: 78.9 nm; PDI [1, 12]: 0.210; EE (%) [2, 12]: 100.0%; encapsulation efficiency, rank within the named table (in words) [2, 13]: highest; pKa [3, 12]: 6.78
CCCCCCCCCCCCN(CCCCCCCCCCCC)CCN(CCO)CCCCCCCCC [Compound 20-17, 2-((2-(didodecylamino)ethyl)(nonyl)amino)ethan-1-ol] | – | – | – | – | – | – | – | – | – | – | – | – | – | – | – | – | – | – | – | – | PDI [1, 8]: 0.092; Size (nm) [1, 8]: 71.2 nm; EE (%) [2, 8]: 98.2%; pKa [3, 8]: 6.25; Total Flux 3 hours ([4]; Table 20-2): 1.97E+07; Total Flux 6 hours ([4]; Table 20-2): 1.44E+07; Total Flux 24 hours ([4]; Table 20-2): 1.54E+06; Total Flux Liver ([5]; Table 20-3, mice): 2.99E+06; Total Flux Lung ([5]; Table 20-3, mice): 2.79E+04; Total Flux Spleen ([5]; Table 20-3, mice, spleen): 9.56E+04; IL-6 ([6]; Table 20-4, formula (20-I)): 6.3; IP-10 ([7]; Table 20-4, formula (20-I)): 1207.0
CCCCCCCOC(=O)CCCCCN(CCO)CCN(CCCCCC(=O)OCCCCCCC)CCCCCC(=O)OCCCCCCC [Compound 20-5, Diheptyl 6,6′-((2-((6-(heptyloxy)-6-oxohexyl)(2hydroxyethyl)amino)ethyl)azanediyl)dihexanoate] | – | – | – | – | – | – | – | – | – | – | – | – | – | – | – | – | – | – | – | – | PDI [1, 8]: 0.210; Size (nm) [1, 8]: 119.3 nm; EE (%) [2, 8]: 78.1%; pKa [3, 8]: 6.79; Total Flux 3 hours ([4]; Table 20-2): 6.07E+07; Total Flux 6 hours ([4]; Table 20-2): 1.99E+07; Total Flux 24 hours ([4]; Table 20-2): 2.07E+06; Total Flux Femur ([5]; Table 20-3, mice): 9.53E+04; Total Flux Liver ([5]; Table 20-3, mice): 2.67E+06; Total Flux Lung ([5]; Table 20-3, mice): 5.80E+04; Total Flux Spleen ([5]; Table 20-3, mice, spleen): 3.40E+06; IL-6 ([6]; Table 20-4, formula (20-I)): 140.8; IP-10 ([7]; Table 20-4, formula (20-I)): 2012.3
CCCCCCCCCCCCN(CCCCCCCCCCCC)CCN1CCN(CCN(CCCCCC)CCN(CCCCCC)CCCCCC)CC1 [Compound 17, N^1-(2-(4-(2-(Didodecylamino)ethyl)piperazin-1-yl)ethyl)-N^1,N^2,N^2-trihexylethane-1,2-diamine] | 164 | 545 | – | – | – | – | – | – | 7.55E+09 | 2.49E+09 | 7.61E+08 | 4.26E+08 | 7.26E+05 | 3.20E+06 | – | – | – | – | – | – | PDI [1, 9]: 0.180; Size (nm) [1, 10]: 82.3 nm; EE (%) [2, 9]: 96.6%; pKa [3, 9]: 6.67; Total Flux Femur ([5]; Table 3, mice): 6.71E+05
CCCCCCCCCCCCCCN(CCCCCCCCCCCCCC)CCN1CCN(CCN(CCCCCCCCCCCC)CCN(CCCCCCCCCCCC)CCCCCCCCCCCC)CC1 [Compound 26, N^1-(2-(4-(2-(Ditetradecylamino)ethyl)piperazin-1-yl)ethyl)-N^1,N^2,N^2-tridodecylethane-1,2-diamine] | 17 | 175 | – | – | – | – | – | – | 1.65E+07 | 1.04E+07 | 2.75E+06 | 2.35E+06 | 3.49E+04 | 2.30E+05 | – | – | – | – | – | – | Size (nm) [1, 11]: 74.2 nm; PDI [1, 12]: 0.112; EE (%) [2, 12]: 84.9%; pKa [3, 12]: 6.19
